Measured values from publication PMC4721062, “Oxadiazole-2-oxides may have other functional targets, in addition to SjTGR, through which they cause mortality in Schistosoma japonicum” (Parasites & Vectors, 2016).
Entries after “also recorded” stand apart in the source; their conditions may differ. Where two headings read alike, the source gives them in different places.

Assays:
adult S. japonicum = experiment: microbe, parasite or virus in culture; assay type: cell-based
Text: ICR mice (20–22 g), were obtained from the Shanghai Sub-Center of Experimental Animals, Chinese Academy of Sciences. They were maintained at the Department of Experimental Animals, Jiangsu Institute of Parasitic Diseases. To infect each mouse, its abdominal skin was exposed to 50 S. japonica cercariae. All of the mice were executed to collect S. japonica adult worms, through portal vein perfusion, 35 days post-infection. The adult S. japonica collected were washed with RPMI 1640 medium and then kept in RPMI 1640 medium (pH 7.5) with HEPES 20 mM, penicillin (100 IU/mL), streptomycin ([…]) and 10 % fetal bovine serum. Then, two pairs of adult worms were transferred into each well of a 24-well culture plate, with 2 mL of the same medium. The worms were cultured at 37 °C in a humid atmosphere with 5 % CO2.
Adult worms were cultured in a 24-well culture plate for 30–60 min at 37 °C, in a humid atmosphere with 5 % CO2. Then, oxadiazole-2-oxides at different concentrations (10, 25, 50, 100 μM) were added. Equal volumes of RPMI 1640 or DMSO were applied as negative controls, while PZQ was applied as a positive control. The adult worm mobility and parasite survival rates were monitored using an inverted phase contrast microscope, at 24, 48 and 72 h. Parasite death was defined as there being no motor activity during 2 min of continuous observation, and morphological and tegumental alterations. All assays were repeated three times.
^b Data collected by visual examination of worm movement and shape; n.e. […] The data presented are the average of three independent experiments.

juvenile S. japonicum = experiment: microbe, parasite or virus in culture; assay type: cell-based; details: for Killing activity 24hr / Killing activity 48hr / Killing activity 72hr / killing at 2 µM / killing at 5 µM / killing at 50 µM: juvenile worms
Protocol: Infected Oncomelania hupensis, provided by the Department of Snail Biology, Jiangsu Institute of Parasitic Diseases, were incubated at 25–28 °C, under illumination, for 2 h to hatch S. japonicum cercariae. The cercariae were collected from the water surface with clean cover glass and placed into a centrifuge tube using pre cooled RPMI 1640. Centrifugation was performed for 1 min at 1500 rpm, and then the steps above were repeated. After centrifugation, the supernatant solution was removed. The cercariae at the bottom were washed twice and resuspended with RPMI 1640. Approximately 20–30 cercariae (1 mL of the resuspension medium) were added to one well in a 24-well culture plate. They were incubated overnight at 37 °C with 5 % CO2. The survival rates and number of tails shed were observed under an inverted microscope. Cercariae that had shed their tails were used as juvenile S. japonicum.
20–30 juvenile worms were transferred into each well of a 24-well culture plate, containing 2 mL RPMI 1640 medium, 20 mM HEPES, 100 IU/mL penicillin, […] streptomycin and 10 % fetal bovine serum. Then, oxadiazole-2-oxides (2, 5, 10, and 50 μM), diluted with the RPMI 1640 medium, were added to their allocated wells. The worms in the negative control wells were treated with equal volumes of RPMI 1640 or DMSO and worms treated with AS were observed as positive controls. The juvenile worms’ survival rates were observed under an inverted phase contrast microscope (Leica, Wetzlar, Germany) at 24, 48 and 72 h. Parasite death was defined as an unclear internal structure of the juvenile worms, with incomplete tegument and contents overflowing radially, or unclear internal structure with complete tegument, but having no motor activity during 1 min of continuous observation. All assays were repeated three times.
^b Data collected by visual examination of worm movement and shape; % D = The number of worms dead / The total number of worms observed, and worms dead judged by unclear internal structure of juvenile worms with uncompleted tegument, and contents overflowing radially, or unclear internal structure with complete tegument, but having no motor activity during 1 min of continuous observation. The data presented are the average of three independent experiments.

recombinant SjTGR = target: T1, recombinant SjTGR (Schistosoma japonicum, UniProt B5THG7); experiment: Inhibition of TrxR activity of recombinant SjTGR (DTNB assay); assay type: biochemical; details: 50 nM SjTGR, 1 mM NADPH, 15 min preincubation, DTNB reduction; for IC50: read-out: IC50 of SjTGR
T1 sequence (B5THG7 1-596): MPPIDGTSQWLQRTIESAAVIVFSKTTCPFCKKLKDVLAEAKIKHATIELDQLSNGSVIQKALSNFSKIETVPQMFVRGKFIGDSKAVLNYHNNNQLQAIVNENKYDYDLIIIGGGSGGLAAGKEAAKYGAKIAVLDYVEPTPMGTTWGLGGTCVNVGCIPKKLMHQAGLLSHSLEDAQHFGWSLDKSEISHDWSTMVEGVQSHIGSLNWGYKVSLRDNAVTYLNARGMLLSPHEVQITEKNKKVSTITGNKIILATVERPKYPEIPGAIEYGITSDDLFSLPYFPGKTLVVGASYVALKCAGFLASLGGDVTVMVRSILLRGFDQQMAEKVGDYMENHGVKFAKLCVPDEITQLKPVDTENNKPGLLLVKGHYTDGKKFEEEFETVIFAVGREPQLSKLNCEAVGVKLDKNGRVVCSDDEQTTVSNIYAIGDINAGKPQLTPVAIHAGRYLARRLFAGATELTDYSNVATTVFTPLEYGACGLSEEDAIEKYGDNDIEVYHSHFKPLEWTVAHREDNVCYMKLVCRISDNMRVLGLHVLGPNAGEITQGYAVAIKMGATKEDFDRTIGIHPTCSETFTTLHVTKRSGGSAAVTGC
Protocol: The purified recombinant SjTGR proteins were produced according to the method described by Song et al.. The inhibition of TrxR activity by the recombinant SjTGR was performed as reported by Rai et al.. Briefly, 50 nM SjTGR and 1 mM NADPH were incubated with different concentrations of oxadiazole-2-oxides (2, 4, 6, 10, 20 μM) for 15 min at room temperature. Then, potassium phosphate buffer (pH 7.4) containing 10 mM EDTA, 100 μM NADPH, and 3 mM DTNB was added to start the reaction. The increase of absorbance at 412 nm was monitored during the first 2 min. All assays were done in triplicate.
50 nM SjTGR and 1 mM NADPH were incubated with different concentrations of oxadiazole-2-oxides (2, 4, 6, 10, 20 μM) for 15 min at room temperature. Then, potassium phosphate buffer (pH 7.4) containing 10 mM EDTA, 100 μM NADPH, 3 mM DTNB was added to start the reaction. The increase in absorbance at 412 nm was monitored during the first 2 min. All assays were done in triplicate. Results shown are the mean ± SD (n = 3)

[1] = Schistosoma japonicum, adult worms, 25 μM, 72 h, read-out: Killing activity 72hr
[2] = Schistosoma japonicum, adult worms, 50 μM, 72 h, read-out: Killing activity 72hr
[3] = Schistosoma japonicum, adult worms, 100 μM, 24 h, read-out: Killing activity 24hr
[4] = Schistosoma japonicum, adult worms, 100 μM, 48 h, read-out: Killing activity 48hr
[5] = Schistosoma japonicum, adult worms, 100 μM, 72 h, read-out: Killing activity 72hr
[6] = Schistosoma japonicum, 2 μM, 24 h, read-out: Killing activity 24hr
[7] = Schistosoma japonicum, 2 μM, 48 h, read-out: Killing activity 48hr
[8] = Schistosoma japonicum, 2 μM, 72 h, read-out: Killing activity 72hr
[9] = Schistosoma japonicum, 5 μM, 24 h, read-out: Killing activity 24hr
[10] = Schistosoma japonicum, 5 μM, 48 h, read-out: Killing activity 48hr
[11] = Schistosoma japonicum, 5 μM, 72 h, read-out: Killing activity 72hr
[12] = Schistosoma japonicum, 50 μM, 24 h, read-out: Killing activity 24hr
[13] = Schistosoma japonicum, 50 μM, 48 h, read-out: Killing activity 48hr
[14] = Schistosoma japonicum, 50 μM, 72 h, read-out: Killing activity 72hr

Structure (SMILES)	Killing activity 24hr (adult S. japonicum; adult worms, 10 μM, 24 h)	Killing activity 48hr (adult S. japonicum; adult worms, 10 μM, 48 h)	Killing activity 72hr (adult S. japonicum; adult worms, 10 μM, 72 h)	Killing activity 24hr (adult S. japonicum; adult worms, 25 μM, 24 h)	Killing activity 48hr (adult S. japonicum; adult worms, 25 μM, 48 h)	Killing activity 24hr (adult S. japonicum; adult worms, 50 μM, 24 h)	Killing activity 48hr (adult S. japonicum; adult worms, 50 μM, 48 h)	Killing activity 24hr (juvenile S. japonicum; 10 μM, 24 h) [%D]	Killing activity 48hr (juvenile S. japonicum; 10 μM, 48 h) [%D]	Killing activity 72hr (juvenile S. japonicum; 10 μM, 72 h) [%D]	IC50 of SjTGR (recombinant SjTGR)	IC50 (recombinant SjTGR) [µM]	killing at 50 µM (adult S. japonicum; [2]) [%]	killing at 100 µM (adult S. japonicum; [5]) [%]	killing at 2 µM (juvenile S. japonicum; [6]) [%]	killing at 2 µM (juvenile S. japonicum; [7]) [%]	killing at 2 µM (juvenile S. japonicum; [8]) [%]	killing at 5 µM (juvenile S. japonicum; [9]) [%]	killing at 5 µM (juvenile S. japonicum; [10]) [%]	killing at 5 µM (juvenile S. japonicum; [11]) [%]	also measured
N#Cc1c(-c2ccc(OCCCOc3ccc(-c4no[n+]([O-])c4C#N)cc3)cc2)no[n+]1[O-] [Compound 21]	n.e.	sluggish	sluggish	n.e	100%D	66.7%D	100%D	30.0	33.3	56.7	did not inhibit SjTGR; also recorded: neither did they inhibit the SjTGR activity	> 20									Killing activity 72hr (adult S. japonicum; adult worms, 25 μM, 72 h): 100%D; Killing activity 72hr (adult S. japonicum; adult worms, 50 μM, 72 h): 100%D; Killing activity 24hr (adult S. japonicum; adult worms, 100 μM, 24 h): 75.0%D; Killing activity 48hr (adult S. japonicum; adult worms, 100 μM, 48 h): 100%D; Killing activity 72hr (adult S. japonicum; adult worms, 100 μM, 72 h): 100%D; Killing activity 24hr (juvenile S. japonicum; 2 μM, 24 h): 22.5%D; Killing activity 48hr (juvenile S. japonicum; 2 μM, 48 h): 22.5%D; Killing activity 72hr (juvenile S. japonicum; 2 μM, 72 h): 27.5%D; Killing activity 24hr (juvenile S. japonicum; 5 μM, 24 h): 26.7%D; Killing activity 48hr (juvenile S. japonicum; 5 μM, 48 h): 26.7%D; Killing activity 72hr (juvenile S. japonicum; 5 μM, 72 h): 30.0%D; Killing activity 24hr (juvenile S. japonicum; 50 μM, 24 h): 33.3%D; Killing activity 48hr (juvenile S. japonicum; 50 μM, 48 h): 38.3%D; Killing activity 72hr (juvenile S. japonicum; 50 μM, 72 h): 67.0%D
N#Cc1c(-c2ccc(CBr)cc2)no[n+]1[O-] [Compound 22]	44.4%D	66.7%D	88.9%D						41.4	69.0		9.7	100	100	18.1	30.1	41	18.6	30.2	41.8	mortality at 25 µM (adult S. japonicum; Schistosoma japonicum, 24 h, read-out: Mortality of adult worms): > 75%; killing at 25 µM (adult S. japonicum; Schistosoma japonicum, adult worms, 25 μM, 24 h, read-out: Killing activity 24hr): 90%; killing at 25 µM (adult S. japonicum; Schistosoma japonicum, adult worms, 25 μM, 48 h, read-out: Killing activity 48hr): 100%; killing at 25 µM (adult S. japonicum; [1]): 100%; killing at 50 µM (adult S. japonicum; Schistosoma japonicum, adult worms, 50 μM, 24 h, read-out: Killing activity 24hr): 90.9%; killing at 50 µM (adult S. japonicum; Schistosoma japonicum, adult worms, 50 μM, 48 h, read-out: Killing activity 48hr): 100%; killing at 100 µM (adult S. japonicum; [3]): 100%; killing at 100 µM (adult S. japonicum; [4]): 100%; mortality at 50 µM (juvenile S. japonicum; Schistosoma japonicum, 24 h, read-out: Mortality of juvenile worms): > 70%; killing at 50 µM (juvenile S. japonicum; [12]): 100%; killing at 50 µM (juvenile S. japonicum; [13]): 100%; killing at 50 µM (juvenile S. japonicum; [14]): 100%
N#Cc1c(-c2ccc(COc3ccc4ccccc4c3C=O)cc2)no[n+]1[O-] [Compound 27]	n.e.	n.e.	62.5%D	sluggish	sluggish	sluggish	sluggish	15.6	24.4	30.0	did not inhibit	> 20	87.5	77.8	9.1	9.1	10.6	14.9	25.7	27	killing at 25 µM (adult S. japonicum; [1]): 75%; killing at 100 µM (adult S. japonicum; [3]): 22.2%; killing at 100 µM (adult S. japonicum; [4]): 33.3%; killing at 50 µM (juvenile S. japonicum; [12]): 40%; killing at 50 µM (juvenile S. japonicum; [13]): 44.4%; killing at 50 µM (juvenile S. japonicum; [14]): 46.7%
N#Cc1c(-c2ccc(COc3cc(=O)oc4ccccc34)cc2)no[n+]1[O-] [Compound 29]	n.e.	n.e.	n.e.	n.e.	n.e.	n.e.	sluggish	30.2	31.7	65.1	did not inhibit	> 20	16.7	66.7	30	30	30	30	32.5	40	Killing activity 72hr (adult S. japonicum; adult worms, 25 μM, 72 h): sluggish; Killing activity 24hr (adult S. japonicum; adult worms, 100 μM, 24 h): n.e.; Mortality of adult worms (adult S. japonicum; adult worms, 100 μM, 24 h): did not cause death; Killing activity 48hr (adult S. japonicum; adult worms, 100 μM, 48 h): sluggish; killing at 50 µM (juvenile S. japonicum; [12]): 42.3%; killing at 50 µM (juvenile S. japonicum; [13]): 51.9%; killing at 50 µM (juvenile S. japonicum; [14]): 75%
